Test [1] relates to BH4 production in human peripheral blood mononuclear cells (PBMCs). As to the kind of experiment: hPBMC assay, inhibition of BH4 production by LC-MS (anti-CD3/anti-CD28 stimulated). The test is classed as cell-based. The note with it: PBMC, read-out: hPBMC IC50.
Experimental: hPBMC Assay: PBMCs were either purchased or isolated from fresh human blood and used either as a fresh preparation or frozen for later use. The assay system was prepared by pre-treating the assay plates overnight with a solution containing anti-human CD3 antibody. Human PBMCs were suspended in assay medium and plated into the assay plates at a density of 1-4×10^5 cells per well. The desired concentration of the test compound was added to each well. A solution of human anti-CD28 antibody was also added to each well. Plates were incubated for 12-48 hours at 37° C. and 5% CO2. Assay plates were centrifuged for 5-15 minutes at 1-3000 RMP and supernatants were removed. The cells were lysed, sealed and used directly or frozen at −80° C. LC-MS was used to quantify the amount of inhibition of BH4 production.
PBMCs were either purchased or isolated from fresh human blood and used either as a fresh preparation or frozen for later use. The assay system was prepared by pre-treating the assay plates overnight with a solution containing anti-human CD3 antibody. Human PBMCs were suspended in assay medium and plated into the assay plates at a density of 1-4×10^5 cells per well. The desired concentration of the test compound was added to each well. A solution of human anti-CD28 antibody was also added to each well. Plates are incubated for 12-48 hours at 37° C. and 5% CO2. Assay plates were centrifuged for 5-15 minutes at 1-3000 RMP and supernatants were removed. The cells were lysed, sealed and used directly or frozen at −80° C.
Test [2] addresses SNAP-hSPR (sepiapterin reductase, SPR) (Homo sapiens, UniProt P35270). Nature of the test: biochemical. Format: binding. The settings on record: terbium labelled SNAP-hSPR / SSZ labelled SNAP-EGFP; read-out: hTR-FRET IC50.

SMILES strings stand for the structures.

Sequence of SNAP-hSPR (sepiapterin reductase, SPR) (P35270 whole entry): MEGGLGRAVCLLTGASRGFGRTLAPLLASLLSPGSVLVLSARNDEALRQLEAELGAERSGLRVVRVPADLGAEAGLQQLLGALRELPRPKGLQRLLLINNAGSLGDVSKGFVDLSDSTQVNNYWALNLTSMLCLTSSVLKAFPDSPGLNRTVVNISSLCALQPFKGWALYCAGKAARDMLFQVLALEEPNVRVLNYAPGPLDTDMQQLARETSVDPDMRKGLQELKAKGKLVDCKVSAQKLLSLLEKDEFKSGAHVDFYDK

By IC50 is commonly meant the point on the concentration scale where inhibition reaches its midpoint. For `Cc1c(C(=O)N2CCC(C(=O)CCC(F)(F)F)CC2)cnn1-c1nn2cccc2c(=O)[nH]1` [Q-1227], the IC50 in test [1] amounted to 14 nM; in test [2] it was 1 nM.
With `Cc1c(C(=O)N2CCC(C(CO)C(F)(F)F)CC2)cnn1-c1nn2cccc2c(=O)[nH]1` (centres unmarked) [Q-1228], the IC50 in test [1] was found to be 17 nM; in test [2], 1 nM.
`Cc1c(C(=O)N2CCC(n3ccnc3C(F)(F)F)CC2)cnn1-c1nn2cccc2c(=O)[nH]1` [Q-1229]: the figures for the half-inhibitory concentration (IC50) in test [1] and in test [2] were 100 nM and 2 nM, respectively.
As to `Cc1c(C(=O)N2CCN(c3ncc(-c4ccccc4F)s3)CC2)cnn1-c1nn2cccc2c(=O)[nH]1` [Q-1230], the results for the IC50 in test [1] and in test [2] were 180 nM and 10 nM, respectively.
Turning to `Cc1c(C(=O)N2CCN(c3ncc(-c4ccnc(F)c4)s3)CC2)cnn1-c1nn2cccc2c(=O)[nH]1` [Q-1231], the IC50 was determined as 62 nM in test [1] and 3 nM in test [2].
With `Cc1c(C(=O)N2CCC(n3ccnc3Cl)CC2)cnn1-c1nn2cccc2c(=O)[nH]1` [Q-1232], the concentration for half-maximal inhibition (IC50) in test [1] is 56 nM; in test [2], 1 nM.
Taken in the same sequence, the figures for `Cc1c(C(=O)N2CCC(n3cccc3Cl)CC2)cnn1-c1nn2cccc2c(=O)[nH]1` [Q-1233] were 23 nM and 1 nM.
Consider `Cc1c(C(=O)N2CCC(n3cnc(C(F)(F)F)c3)CC2)cnn1-c1nn2cccc2c(=O)[nH]1` [Q-1234], for which the IC50 in test [1] is 27 nM; in test [2], 2 nM.
The corresponding values for `Cc1c(C(=O)N2CCN(c3ncc(-c4ccncc4)s3)CC2)cnn1-c1nn2cccc2c(=O)[nH]1` [Q-1235] are 18 nM and 5 nM.
Taken in the same sequence, the figures for `Cc1c(C(=O)N2CCN(c3ncc(-c4ccnc(Cl)c4)s3)CC2)cnn1-c1nn2cccc2c(=O)[nH]1` [Q-1236] were 48 nM and 6 nM.
The corresponding values for `O=C(c1cn(-c2nn3cccc3c(=O)[nH]2)nn1)N1CC2(C1)CC(F)(F)C2` [Q-1237] are 700 nM and 3 nM.
Regarding `Cc1c(C(=O)N2CCC(n3cccc3C(F)(F)F)CC2)cnn1-c1nn2cccc2c(=O)[nH]1` [Q-1238], the values for the IC50 in test [1] and in test [2] were 79 nM and 2 nM, respectively.
Taken in the same sequence, the figures for `Cc1nn(-c2nn3cccc3c(=O)[nH]2)cc1C(=O)N1CC2(C1)CC(F)(F)C2` [Q-1239] were 27 nM and 2 nM.
Taken in the same sequence, the figures for `Cc1c(C(=O)N2CCN(C3CC3C(F)(F)F)CC2)cnn1-c1nn2cccc2c(=O)[nH]1` (centres unmarked) [Q-1240] were 35 nM and 1 nM.
Consider `Cc1nn(-c2nn3cccc3c(=O)[nH]2)cc1C(=O)N1CCN(C2CCC2)CC1` [Q-1241], for which the IC50 came out at 20 nM in test [1] and 2 nM in test [2].
The corresponding values for `Cc1nn(-c2nn3cccc3c(=O)[nH]2)cc1C(=O)N1CC(N2CCC(F)(F)C2)C1` [Q-1243] are 51 nM and 20 nM.
Take `O=C(c1cn(-c2nn3cccc3c(=O)[nH]2)nn1)N1CCN(C2CCC2)CC1` [Q-1244]: the IC50 in test [1] is 36 nM; in test [2] it was 1 nM.
As for `O=C(c1cnn(-c2nn3cccc3c(=O)[nH]2)c1)N1CCN2CC(F)(F)C[C@H]2C1` [Q-1246], the IC50 in test [1] turned out to be 100 nM; in test [2], 4 nM.
Taken in the same sequence, the figures for `O=C(c1cn(-c2nn3cccc3c(=O)[nH]2)nn1)N1CCN(C2CCC2(F)F)CC1` (centres unmarked) [Q-1247] were 150 nM and 2 nM.
The corresponding values for `Cc1c(C(=O)N2CCN(C3CC3F)CC2)cnn1-c1nn2cccc2c(=O)[nH]1` (centres unmarked) [Q-1249] are 46 nM and 2 nM.
`Cc1c(C(=O)N2CCC(n3ccc(C#N)c3)CC2)cnn1-c1nn2cccc2c(=O)[nH]1` [Q-1250]: the IC50 in test [1] is 24 nM; in test [2], 1 nM.
With `Cc1c(C(=O)N2CC(N3CCC(F)(F)C3)C2)cnn1-c1nc2[nH]ccc2c(=O)[nH]1` [Q-1254], the IC50 in test [1] was 870 nM; in test [2] it was 100 nM.
As for `Cc1c(C(=O)N2CC(N3CCC(F)(F)C3)C2)cnn1-c1nc2cc[nH]c2c(=O)[nH]1` [Q-1255], the values for the IC50 in test [1] and in test [2] were 580 nM and 100 nM, respectively.
Regarding `Cc1c(C(=O)N2CCN(CC(F)(F)F)CC2)cnn1-c1nc2[nH]ccc2c(=O)[nH]1` [Q-1256], the IC50 in test [1] is 330 nM; in test [2], 30 nM.
Taken in the same sequence, the figures for `Cc1c(C(=O)N2CC3(C2)CC(F)(F)C3)cnn1-c1nc2cc[nH]c2c(=O)[nH]1` [Q-1259] were 360 nM and 100 nM.
The corresponding values for `Cc1c(C(=O)N2CCN(CC(F)(F)F)CC2)cnn1-c1nc2cc[nH]c2c(=O)[nH]1` [Q-1260] are 81 nM and 30 nM.
As for `Cc1c(C(=O)N2CC3(C2)CC(F)(F)C3)cnn1-c1nc2[nH]ccc2c(=O)[nH]1` [Q-1263], the IC50 worked out at 370 nM in test [1] and 100 nM in test [2].
Taken in the same sequence, the figures for `Cc1c(C(=O)N2CCC2c2cncc(F)c2)cnn1-c1nn2cccc2c(=O)[nH]1` (centres unmarked) [Q-1269] were 53 nM and 5 nM.
Turning to `Cc1c(C(=O)N2CCC(n3cccc3S(=O)(=O)C(F)(F)F)CC2)cnn1-c1nn2cccc2c(=O)[nH]1` [Q-1288], the IC50 is 600 nM in test [1] and 8 nM in test [2].
The corresponding values for `Cc1c(C(=O)N2CCC(n3ccc(S(=O)(=O)C(F)(F)F)c3)CC2)cnn1-c1nn2cccc2c(=O)[nH]1` [Q-1289] are 70 nM and 2 nM.
Taken in the same sequence, the figures for `Cc1c(C(=O)N2CC3CC(C2)N3CC(F)(F)F)cnn1-c1nc2cc[nH]c2c(=O)[nH]1` [Q-1291] were 2400 nM and 200 nM.
Taken in the same sequence, the figures for `Cc1c(C(=O)N2CCC2c2ccc(F)cn2)cnn1-c1nn2cccc2c(=O)[nH]1` (centres unmarked) [Q-1301] were 820 nM and 10 nM.
For the molecule `Cc1c(C(=O)N2CC3CC(C2)N3CC(F)(F)F)cnn1-c1nc2[nH]ccc2c(=O)[nH]1` [Q-1305], the IC50 in test [1] is 1200 nM; in test [2], 100 nM.
For `Cc1c(C(=O)N2CCN(CC(F)(F)F)CC2)cnn1-c1nc2c(c(=O)[nH]1)COC2` [Q-1344], the IC50 in test [1] turned out to be 320 nM; in test [2] it was 9 nM.
For the molecule `Cc1c(C(=O)N2CCN(C3CCCC3(F)F)CC2)cnn1-c1nn2cccc2c(=O)[nH]1` (centres unmarked) [Q-1362], the results for the IC50 in test [1] and in test [2] were 43 nM and 1 nM, respectively.
Taken in the same sequence, the figures for `Cc1c(C(=O)N2CCN(S(=O)(=O)c3ccccc3)CC2)cnn1-c1nn2cccc2c(=O)[nH]1` [Q-1535] were 110 nM and 1 nM.
In the case of `Cc1c(C(=O)N2CCN(S(C)(=O)=O)CC2)cnn1-c1nn2cccc2c(=O)[nH]1` [Q-1539], the IC50 worked out at 780 nM in test [1] and 4 nM in test [2].
The corresponding values for `Cc1c(C(=O)N2CCN(S(=O)(=O)C(C)C)CC2)cnn1-c1nn2cccc2c(=O)[nH]1` [Q-1558] are 92 nM and 2 nM.
On to `CCS(=O)(=O)N1CCN(C(=O)c2cnn(-c3nn4cccc4c(=O)[nH]3)c2C)CC1` [Q-1581], for which the half-maximal inhibitory concentration (IC50) in test [1] was determined as 170 nM; in test [2], 4 nM.
Taken in the same sequence, the figures for `Cc1c(C(=O)N2CCN(S(=O)(=O)Cc3ccccc3)CC2)cnn1-c1nn2cccc2c(=O)[nH]1` [Q-1591] were 110 nM and 3 nM.
The corresponding values for `Cc1c(C(=O)N2CCN(S(=O)(=O)CCC(F)(F)F)CC2)cnn1-c1nn2cccc2c(=O)[nH]1` [Q-1728] are 86 nM and 1 nM.
Taken in the same sequence, the figures for `Cc1c(C(=O)N2CCN(S(=O)(=O)c3cccc(C#N)c3)CC2)cnn1-c1nn2cccc2c(=O)[nH]1` [Q-1794] were 250 nM and 2 nM.
Turning to `Cc1c(C(=O)N2CCN(S(=O)(=O)c3ccccc3C(F)(F)F)CC2)cnn1-c1nn2cccc2c(=O)[nH]1` [Q-1796], the IC50 was 260 nM in test [1] and 1 nM in test [2].
Taken in the same sequence, the figures for `CCCS(=O)(=O)N1CCN(C(=O)c2cnn(-c3nn4cccc4c(=O)[nH]3)c2C)CC1` [Q-1797] were 79 nM and 1 nM.
With `Cc1c(C(=O)N2CCN(S(=O)(=O)c3ccccc3F)CC2)cnn1-c1nn2cccc2c(=O)[nH]1` [Q-1799], the IC50 in test [1] is 100 nM; in test [2], 1 nM.
For the molecule `Cc1nc(C)c(S(=O)(=O)N2CCN(C(=O)c3cnn(-c4nn5cccc5c(=O)[nH]4)c3C)CC2)s1` [Q-1805], the values for the IC50 in test [1] and in test [2] were 130 nM and 1 nM, respectively.
The corresponding values for `Cc1c(C(=O)N2CCN(S(=O)(=O)c3ccc(F)cc3)CC2)cnn1-c1nn2cccc2c(=O)[nH]1` [Q-1807] are 110 nM and 1 nM.
The corresponding values for `Cc1c(C(=O)N2CCN(S(=O)(=O)C3CCCCC3)CC2)cnn1-c1nn2cccc2c(=O)[nH]1` [Q-1818] are 95 nM and 1 nM.
Taken in the same sequence, the figures for `Cc1c(C(=O)N2CCN(S(=O)(=O)c3ccccc3Cl)CC2)cnn1-c1nn2cccc2c(=O)[nH]1` [Q-1819] were 91 nM and 1 nM.
As to `Cc1cc(C)c(S(=O)(=O)N2CCN(C(=O)c3cnn(-c4nn5cccc5c(=O)[nH]4)c3C)CC2)c(C)c1` [Q-1820], the IC50 was found to be 94 nM in test [1] and 1 nM in test [2].
Taken in the same sequence, the figures for `Cc1c(C(=O)N2CCN(S(=O)(=O)c3cccs3)CC2)cnn1-c1nn2cccc2c(=O)[nH]1` [Q-1821] were 130 nM and 1 nM.
With `Cc1c(C(=O)N2CCN(S(=O)(=O)c3cccc(Cl)c3)CC2)cnn1-c1nn2cccc2c(=O)[nH]1` [Q-1822], the IC50 in test [1] turned out to be 120 nM; in test [2] it was 1 nM.
Taken in the same sequence, the figures for `Cc1c(C(=O)N2CCN(S(=O)(=O)c3cccc(F)c3)CC2)cnn1-c1nn2cccc2c(=O)[nH]1` [Q-1823] were 110 nM and 1 nM.
With `Cc1c(C(=O)N2CCN(S(=O)(=O)c3c(Cl)cccc3Cl)CC2)cnn1-c1nn2cccc2c(=O)[nH]1` [Q-1836], the results for the IC50 in test [1] and in test [2] were 270 nM and 1 nM, respectively.
In the case of `Cc1c(C(=O)N2CCN(S(=O)(=O)c3ccc(C#N)cc3)CC2)cnn1-c1nn2cccc2c(=O)[nH]1` [Q-1838], the 50% inhibitory concentration (IC50) in test [1] turned out to be 170 nM; in test [2], 1 nM.

For the origin of these results see patent US9963462B2 (priority 2015, dated 2018).
